Measurements reported in a melting point compilation (Tetko et al.).

| melting point [°C] | SMILES |
| --- | --- |
| 115 to 117 | Cc1cc(C(=O)CCl)c(C)n1-c1ccc(F)c(Cl)c1 |
| 199 to 201 | CC(=O)Nc1ccc(N=C=S)cc1 |
| 157 to 159 | CNc1ccncc1[N+](=O)[O-] |
| 66 to 68 | OCCc1ccc2ccccc2c1 |
| 72 to 74 | CNC1CC(=O)N(Cc2ccccc2)C1=O (stereo not drawn) |
| 126 to 128 | CC(C)c1cccc(N2CC(C(=O)O)CC2=O)c1 (stereo not drawn) |
| 139 to 141 | Nc1nc(-c2c(F)cccc2F)co1 |
| 67 to 69 | CN(C)C(=O)c1ccc(Cl)nc1 |
| 162 to 164 | COc1ccc(-c2nc(CC(=O)O)cs2)cc1OC |
| 208 to 210 | O=C(O)CNC(=O)c1cc(-c2ccccc2)on1 |
| 87 to 89 | Cc1ccc(N)c(-c2nc(C3CC3)no2)c1 |
| 77 to 79 | COc1ccc(C(=O)C(F)(F)F)cc1OC |
| 203 to 205 | CN1C(=O)c2ccc(NC(=O)CCl)cc2C1=O |
| 96 to 98 | OC1CCCc2nc(-c3ccccc3)sc21 (stereo not drawn) |
| 199 to 201 | O=C(O)c1ccc(=O)n(-c2ccccc2F)n1 |
| 76 to 78 | Cc1ccc(C(C)(C)C(=O)O)cc1 |
| 276 to 278 | O=C(O)c1c[nH]nc1-c1ccc(Cl)cc1 |
| 225 to 227 | CSc1ccc(C(=O)O)cc1[N+](=O)[O-] |
| 211 to 213 | C#CCNC(=O)Nc1ccc(Cl)cc1 |
| 70 to 72 | O=[N+]([O-])c1ccc(S(=O)(=O)Cl)c(Br)c1 |
| 173 to 175 | CC(=O)Nc1cccc(NC(=O)CCl)c1 |
| 62 to 64 | O=C(Cl)c1cc([N+](=O)[O-])ccc1Br |
| 109 to 111 | NC(=S)Cc1ccc(F)cc1 |
| 121 to 123 | CCCN(CC)C(=O)c1ccc(C(=O)O)cc1 |
| 120 to 124 | CCn1c(=O)[nH]c2ccccc21 |
| 244 to 246 | Cc1nc(-c2ccccc2)oc1C(=O)O |
| 117 to 119 | CC(=O)N(c1cccc(C)c1)c1nc(CCl)cs1 |

| melting point [°C] | SMILES |
| --- | --- |
| 143 to 145 | CCOc1ccc(Br)cc1S(N)(=O)=O |
| 84 to 86 | CC(N)C(=O)Nc1ccc(Cl)cc1 (stereo not drawn) |
| 201 to 203 | Cc1c[nH]c(=O)n1-c1cccc([N+](=O)[O-])c1 |
| 37 to 39 | CCOC(=O)c1cc(Cl)ccc1[N+](=O)[O-] |
| 77 to 79 | CC(C)c1cc(=O)oc2cc(O)ccc12 |
| 299 to 301 | O=C(O)c1ccc(=O)n(-c2ccc(F)cc2)c1 |
| 97 to 99 | O=C1CC(c2ccccc2F)C(=O)N1 (stereo not drawn) |
| 44 to 46 | O=S(=O)(Cl)c1ccc2c(c1)CCCC2 |
| 57 to 59 | COC(=O)c1cc([N+](=O)[O-])c(C)cc1C |
| 215 to 217 | Cc1[nH]c2ccc(F)cc2c1C=O |
| 66 to 68 | O=C(CCCCl)c1cc(F)ccc1O |
| 38 to 40 | Cc1cc2c(Cl)nccc2o1 |
| 41 to 43 | CN(C)c1cccc(N)n1 |
| 45 to 55 | Cc1cc(C)n(-c2ccc(CC#N)cc2)n1 |
| 99 to 101 | CS(=O)(=O)Nc1ccccc1C#N |
| 86 to 88 | O=[N+]([O-])c1ccc(Br)c(S(=O)(=O)Cl)c1 |
| 73 to 75 | CCNS(=O)(=O)c1ccc(Cl)nc1 |
| 185 to 187 | Cc1nc(COc2ccc(/C=C/C(=O)O)cc2)cs1 |
| 151 to 153 | Nc1nc(-c2cccc(O)c2)cs1 |
| 67 to 69 | O=C(O)CSCc1ccc(Cl)c(Cl)c1 |
| 135 to 137 | Cc1cc(C)c2nc(N)sc2c1 |
| 111 to 113 | O=Cc1cccc(OCC(=O)O)c1 |
| 89 to 91 | O=C1CCOc2cc(Br)ccc21 |
| 51 to 53 | CC(OCc1ccccc1)C(=O)O (stereo not drawn) |
| 59 to 61 | S=C=Nc1ccc2ccccc2c1 |
| 92 to 95 | O=C(CCl)NCc1ccc(F)cc1 |
| 169 to 171 | O=C(O)c1cc(S(=O)(=O)NCCOc2ccccc2)ccc1Cl |

| melting point [°C] | SMILES |
| --- | --- |
| 62 to 64 | Cc1ccc(I)c(O)c1 |
| 87 to 89 | COC(=O)c1cc(N)c(Br)cc1F |
| 209 to 211 | Cc1nc(-c2ccc(F)c(F)c2)sc1C(=O)O |
| 59 to 61 | O=C(NCc1cccc(Cl)c1)c1ccc(F)cc1 |
| 117 to 119 | OCc1ncc(-c2ccccc2)o1 |
| 115 to 117 | NC(=O)CCc1ccc([N+](=O)[O-])cc1[N+](=O)[O-] |
| 181 to 183 | Nc1ccc(F)c(N2CCS(=O)(=O)CC2)c1 |
| 94 to 96 | COCc1ccccc1C(=O)O |
| 101 to 103 | CCC1Cc2c(Br)cccc2C(=O)N1 (stereo not drawn) |
| 110 to 112 | O=C(O)CCCNc1nc2ccccc2s1 |
| 162 to 164 | Cc1c(N)cccc1C(=O)N1CCCC1 |
| 248 to 250 | Nc1nncc(-c2ccc(F)cc2)n1 |
| 91 to 93 | COc1ccc(C=NO)cc1OC |
| 49 to 51 | COCCOc1ccc(CC#N)cc1 |
| 174 to 176 | CCOC(=O)/C(C#N)=C\Nc1cc(F)cc(F)c1 |
| 137 to 139 | CNC(=O)c1cc(Cl)ccc1[N+](=O)[O-] |
| 259 to 261 | NC(=S)c1cccc(-c2nnc(N)o2)c1 |
| 128 to 130 | Cn1nnnc1Sc1ccc(Cl)cc1N |
| 176 to 178 | CC(=O)c1ccc2c(c1)CC(=O)N2C |
| 186 to 188 | CNc1c(F)cccc1C(N)=O |
| 127 to 129 | CCOC(=O)c1ncccc1N |
| 101 to 103 | c1coc(-c2cc[nH]n2)c1 |
| 39 to 41 | Cc1nn(Cc2ccccc2)c(C)c1CN |
| 94 to 96 | Cc1cc(C(=O)CCl)c(C)n1Cc1ccc(F)cc1 |
| 142 to 144 | O=C(O)c1ccn(-c2cccc(Br)c2)n1 |

More lines, now with the values behind:

| SMILES | melting point [°C] |
| --- | --- |
| Cc1cc(NC(=O)Nc2cc(C)nn2C(C)(C)C)n(C(C)(C)C)n1 | 235 to 237 |
| O=C(O)CN1C(=O)c2cccnc2C1=O | 239 to 241 |
| FC(F)n1ccnc1Cn1cc(Br)cn1 | 79 to 81 |
| NCc1nnc2n1CCCC2C(F)(F)F (stereo not drawn) | 81 to 83 |
| OCc1nccn1CC(F)(F)F | 89 to 91 |
| CS(=O)(=O)OCCn1cc(C#N)cn1 | 64 to 66 |
| CCC1(C(=O)O)CCN(C(=O)OC(C)(C)C)C1 (stereo not drawn) | 94 to 96 |
| O=C(NCCO)c1ccc(Cl)nn1 | 119 to 121 |
| NC(=S)c1cccnc1N1CCNC(=O)C1 | 189 to 191 |
| NC1CCN(c2ccc(C(F)(F)F)cc2)C1=O (stereo not drawn) | 132 to 134 |
| Nc1cc(=O)[nH][nH]1 | 204 to 206 |
| Cc1nn(C)c(C)c1OCC(=O)O | 172 to 174 |
| Cc1nnc(N)o1 | 183 to 185 |
| CN(C)c1nccc(C=O)n1 | 50 to 52 |
| O=C(O)c1cccc(S(=O)(=O)Nc2ccccc2-c2ccccc2)c1 | 164 to 166 |
| O=C(O)C1CCCN(S(=O)(=O)Cc2ccccc2)C1 (stereo not drawn) | 128 to 130 |
| CCNc1nc(C)c(C(=O)O)s1 | 171 to 173 |
| O=C(O)C1CCC(=O)N(Cc2ccccc2)C1 (stereo not drawn) | 154 to 156 |
| Cc1nc(CC(N)=NO)no1 | 142 to 144 |
| N#CCc1nnc2n1CCCCC2 | 113 to 115 |
| COc1cc(C=C2CC(C(C)(C)C)Cc3c2nc2ccccc2c3C(=O)O)cc(OC)c1OC (stereo not drawn) | 220 to 222 |
| O=C1CCOc2c1cc(Br)cc2[N+](=O)[O-] | 104 to 106 |

| SMILES | melting point [°C] |
| --- | --- |
| CN1CCNc2cccnc21 | 89 to 91 |
| CS(=O)(=O)NC1CCNCC1 | 143 to 145 |
| N#CCCn1cc(C(=O)O)c(-c2cccc([N+](=O)[O-])c2)n1 | 242 to 244 |
| CC(=O)CC(=O)N1CCOCC1 | 68 to 70 |
| CC(C)C1CNC(=O)C1 (stereo not drawn) | 98 to 100 |
| O=C(O)Cc1cc(=O)n(C2CCS(=O)(=O)C2)[nH]1 (stereo not drawn) | 168 to 170 |
| CC(Cl)C(=O)N1CCCC(C(N)=O)C1 (stereo not drawn) | 114 to 116 |
| ClCc1cc2ccccc2s1 | 49 to 51 |
| NC(=O)CN1CC(C(=O)O)CC1=O (stereo not drawn) | 169 to 171 |
| O=C(O)C1CC(O)CN1C(=O)C12CC3CC(CC(C3)C1)C2 (stereo not drawn) | 206 to 208 |
| CCOC(=O)Cn1[nH]cc(C#N)c1=N | 121 to 123 |
| N#CCS(=O)(=O)c1ccc(C(=O)O)cc1 | 236 to 238 |
| O=C(O)Cn1c(=O)n(C2=CCCCC2)c2ccccc21 | 145 to 147 |
| CS(=O)(=O)c1cc(S(=O)(=O)Cl)c(Cl)s1 | 124 to 126 |
| CCC(C)(N)C(=O)O (stereo not drawn) | 276 to 278 |
| Nc1noc(-c2ccoc2)n1 | 179 to 181 |
| Nc1ccc(S(=O)C(F)(F)F)cc1 (stereo not drawn) | 76 to 78 |
| CCc1nc(NC(=O)CCl)sc1C | 124 to 126 |
| C=CCn1cnc(-c2ccccc2)c1N | 72 to 74 |
| COc1ccc(Cl)cc1CCl | 44 to 46 |
| CN1CCCC(N(C)C(=O)c2ccc(N)cc2)C1 (stereo not drawn) | 116 to 118 |
| O=C(O)c1cn(-c2ccccc2)nn1 | 138 to 140 |

| SMILES | melting point [°C] |
| --- | --- |
| CC1(C)CC(C=Cc2ccccn2)=Cc2c1sc(N)c2C#N | 200 to 202 |
| Nc1cc([N+](=O)[O-])c(F)cc1F | 98 to 100 |
| O=C(NS(=O)(=O)c1cccs1)c1ccccc1 | 92 to 94 |
| NC(=O)c1[nH]cnc1N | 249 to 251 |
| O=c1[nH]nnn1-c1ccccc1 | 188 to 189 |
| Nc1ccc(Oc2cccc(F)c2)c2ccncc12 | 137 to 139 |
| NCc1cc(Br)c2c(c1)OCO2 | 49 to 51 |
| Nc1nc2cc(S(=O)(=O)N3CCCC3)ccc2o1 | 240 to 242 |
| Cc1nc2nnnn2c(C)c1CCC(=O)O | 187 to 189 |
| Cn1c(S)nc2sccc2c1=O | 317 to 319 |
| CC(=O)c1ccc(S(=O)(=O)NCCCC(=O)O)cc1 | 140 to 142 |
| O=C(CCl)Nc1ccc(Oc2ccc(Br)cc2)nc1 | 114 to 116 |
| N#CC1=C(N)CCCC1 | 92 to 94 |
| O=S(=O)(Nc1ccc(F)c(F)c1)c1ccc(Cl)nc1 | 159 to 161 |
| CCC1C(=O)NC(=S)N(c2ccc(Cl)cc2)C1=O (stereo not drawn) | 148 to 150 |
| COc1cccc(-c2cc(N)n(-c3ccccc3)n2)c1 | 112 to 114 |
| S=c1[nH][nH]c(=NCCc2cccs2)s1 | 82 to 84 |
| CC(C)(C)OC(=O)N1CCC(Oc2ccccc2)(C(=O)O)CC1 | 103 to 105 |
| CCN(C(C)=O)c1nc(CCl)cs1 | 82 to 84 |
| O=C(O)C1CCCN(S(=O)(=O)c2ccccc2)C1 (stereo not drawn) | 121 to 123 |
